Test results as given in US11434205B2, “Substituted imidazole carboxylate derivatives and the use thereof” (priority 2018, dated 2022).
Where two headings read alike, the source gives them in different places.

Legend:
[1] = system: rats; test: Loss of righting reflexes (LORR) assay in rats, ED50 by up and down method; format: in vivo, rat; conditions: tail vein, class symbols; for ED50: Rattus norvegicus
Description: The Anesthetic Activity of the Compounds was Assessed in Rats Using a Loss of Righting Reflexes (LORR) Assay
(§1) Adult male Sprague-Dawley rats (250-300 g) were selected for the experiment. […] The anesthesia effects of the compounds were assessed in rats using a LORR assay and a period >30 s was considered as an indicator of general anesthesia. Then the up and down method was used to determine 50% effective dose (ED50). The drugs were administered through the tail vein of rats in a volume of 0.6 mL and at a rate of 0.1 mL/s.

[2] = system: rats; format: in vivo, rat; conditions: rats of the MAP/HR figures, 2×ED50, tail vein; same value in min
Procedure, shortened: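 Rats implanted with telemetry (left ventricular and abdominal aortic catheters, ECG leads) at least one week before recording; compounds given via lateral tail-vein catheter. MAP and HR sampled every 15 s for 30 min before and after dosing to judge hemodynamic stability.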

[3] = system: rats; format: in vivo, rat; conditions: rats of the MAP/HR figures, 2×ED50, tail vein
[4] = system: rats
Description: as §1

[5] = system: rats; test: Pharmacological characteristics at equivalent doses (2×ED50) in rats; conditions: 2×ED50, tail vein; for Adverse reactions: Red urine (incidence): DMSO solution (DMSO alone 10/10); for Onset time: time of LORR; for Adverse reactions: Tremor (incidence): animals affected/animals
Description: Comparison of Pharmacological Characteristics of the Compounds at Equivalent Doses (2×ED50) in Rats
Adult male Sprague-Dawley rats (250-300 g) were selected for the experiment (n=8). […] The drugs were administered at a dose twice their ED50 through the tail vein of rats in a volume of 0.6 mL and at a rate of 0.1 mL/s. In addition, the time of LORR was recorded as the onset time of anesthesia. […] Furthermore, the duration of the pharmacological effects is sufficient to meet the time requirements for rapid induction of general anesthesia and for diagnostic examinations, some short invasive clinical examinations, or operations.

SMILES	ED50 (mg/kg) [1]	recovery time of the test animals' righting reflex [2] [min]	recovery time of the test animals' righting reflex [3] [s]	Approximate therapeutic index [4]	Minimal lethal dose [4] [mg/kg]	Righting reflex duration [5] [min]	Sedation duration (mg/kg) [5]	Adverse reactions: Red urine (incidence) [5]	Onset time [5] [min]	ED50 [1] [mg/kg]	Adverse reactions: Tongue stretching (incidence) [5]	Adverse reactions: Tremor (incidence) [5]
C[C@H](c1ccccc1)n1cnc(F)c1C(=O)OC1(C)CCC1 [Compound E27]	B (B means that the measured ED50 is in the range of 0.10-0.50 mg/kg (excluding 0.10 mg/kg, including 0.50 mg/kg).)	4.10	246	>24	>6	4.13 ± 1.12	10.23 ± 1.60	(8/8)	0.31 ± 0.10			
C=C=CC1(OC(=O)c2cncn2[C@H](C)c2ccccc2)CCOCC1 [Compound D34]		2.83	170	>13	>8	4.50 ± 0.86		Red urine (8/8)	0.11 ± 0.04	0.5 to 1		
CCC(C)(CC)OC(=O)c1c(F)ncn1[C@H](C)c1ccccc1 [Compound E30]		1.33	80	>42	>6	1.23 ± 0.58		(8/8)	0.60 ± 0.18	0.1 to 0.5		
C=C=CC(C)OC(=O)c1c(F)ncn1[C@H](C)c1ccccc1 (stereo partly drawn) [Compound E18]		2.63	158	>20	>1	2.51 ± 1.69		(8/8)	0.40 ± 0.20	0.01 to 0.1		
C=CC#CC(C)OC(=O)c1c(F)ncn1[C@H](C)c1ccccc1 (stereo partly drawn) [Compound E20]		0.85	51	>80	>5	0.75 ± 0.21		(8/8)	0.51 ± 0.16	0.01 to 0.1	(2/8),	
C=C=CC(C)(C)OC(=O)c1c(F)ncn1[C@H](C)c1ccccc1 [Compound E19]		0.93	56	>40	>4	0.80 ± 0.30		urine (8/8)	0.34 ± 0.13	0.01 to 0.1		(3/8), Red
CC#CC(C)OC(=O)c1c(F)ncn1[C@H](C)c1ccccc1 (stereo partly drawn) [Compound E16]		3.33	200	>20	>4	3.59 ± 1.22		(8/8)	0.30 ± 0.09	0.1 to 0.5		
CCC(CC)OC(=O)c1c(F)ncn1[C@H](C)c1ccccc1 [Compound E22]	B (B means that the measured ED50 is in the range of 0.10-0.50 mg/kg (excluding 0.10 mg/kg, including 0.50 mg/kg).)	1.10	66	>30	>4	0.99 ± 0.70	5.51 ± 1.13	urine (8/8)	0.73 ± 0.13			(4/8), Red
C[C@H](c1ccccc1)n1cnc(F)c1C(=O)OC1CSC1 [Compound E11]		1.55	93	>60	>4	1.52 ± 0.53		(8/8)	0.57 ± 0.25	0.01 to 0.1		
C=CC#CC(C)(C)OC(=O)c1c(F)ncn1[C@H](C)c1ccccc1 [Compound E21]	C (C indicates that the measured ED50 is in the range of 0.50-1.00 mg/kg (excluding 0.50 mg/kg, including 1.00 mg/kg).)	2.58	155	>12	>9	2.76 ± 2.17	7.71 ± 3.03	(8/8)	0.49 ± 0.20			
C[C@H](c1ccccc1)n1cnc(F)c1C(=O)OC1COC1 [Compound E10]		2.70	162	>14	>10	2.59 ± 0.85		(8/8)	0.21 ± 0.05	0.5 to 1		
C=CC1(OC(=O)c2cncn2[C@H](C)c2ccccc2)COC1 [Compound D7]		6.83	410	>10	>6	3.20 ± 0.81		Red urine (8/8)	0.10 ± 0.01	0.5 to 1		
CC#CC1(OC(=O)c2c(F)ncn2[C@H](C)c2ccccc2)COC1 [Compound E15]		1.20	72	>32	>5	1.10 ± 0.89		urine (8/8)	0.42 ± 0.13	0.1 to 0.5		(2/8), Red
CC(=O)C1(OC(=O)c2cncn2[C@H](C)c2ccccc2)CC1 [Compound C1]		2.17	130	>90	>20	1.9 ± 0.64		(8/8)	0.15 ± 0.09	0.01 to 0.1		Tremor (8/8), Red urine
C[C@H](c1ccccc1)n1cnc(F)c1C(=O)OCC(C)(C)C [Compound E26]	A (A indicates that the measured ED50 is in the range of 0.01-0.10 mg/kg (including 0.01 and 0.10 mg/kg).)	1.57	94	>50	>4	1.45 ± 0.41	6.37 ± 1.31	(8/8)	0.48 ± 0.09			
